Read-outs that look alike come from different tables or passages of the source. Some results are limits rather than exact numbers.

The subject of data set [1] is human peripheral blood cells (PBL). Put plainly: adhesion of human peripheral blood cells (PBL) to ICAM-1 after stimulation with OKT3 or PMA. Format: cell-based. To be noted: stimulation with OKT3; FIG. 2. An excerpt:
Human peripheral blood cells (PBL) were stimulated with agonists that activate a beta-2 integrin-dependent adhesion. In these primary human lymphocytes, the beta-2 integrin-dependent adhesion can be activated by cytohesins at the specific ligands ICAM-1.
The agonists employed were the monoclonal antibody OKT3 (hybridome of ATCC, mAb OKT3 purified on protein A, according to standard methods from Current Protocols in Immunology, 5th Ed., Coligan et al., Edts, Wiley 2004) against the CD3 complex, a T-cell receptor and phorbolester (PMA), which non-physiologically activates intracellular signal cascades in human PBL including integrin-dependent adhesion while circumventing cytohesins.
Cells from human blood were isolated according to standard methods (Current Protocols in Immunology, 5th Ed., 2004, Coligan et al., Edts, Wiley). Cell culture dishes coated with ICAM-1 were produced by means of recombinant ICAM-1-Fc fusion protein (Kolanus, W. et al., Cell 86, 233-42 (1996), Geiger, C. et al., EMBO J., 19, 2525-2536 (2000)). 300,000 human peripheral blood cells (PBL) were stimulated for 30 minutes with 2 μg/ml of OKT3 or 40 ng/ml of phorbolester (PMA) in Hank's BSS, (Gibco; composition (g/l): CaCl2x2H2O (0.185), KCl (0.4), KH2PO4 (0.06), MgCl2x6H2O (0.1), MgSO4x7H2O (0.1), NaCl (8.0), NaHCO3 (0.35), Na2HPO4 (0.048), D-glucose (1.0)), and placed for one hour in Hank's BSS onto the ICAM-1 coated cell culture dishes, whereby the agonists were not removed. Non-bound cells were removed by washing with Hank's BSS. The percentage of bound cells was determined by counting under a microscope using a standard counting grid.

In the next data set the test system is cytohesin-2. Put plainly: luciferase assay in HeLa-cells (serum response element activation, MAPK path via cytohesin-2). The data set is classed as cell-based. To be noted: compounds 1 μM to 50 μM, read-out: IC50 (luciferase signal). On the procedure: The IC50 value was determined in comparison to the LC50 value in a luciferase assay in HeLa-cells, corresponding to the test conditions described in Theis, M. G. et al., Proc Natl Acad Sci USA, 101, 11221-26 (2004). The stimulation of receptor tyrosine kinases by means of growth factors contained in fetal calf serum activates the MAPK path via cytohesin-2 and results in an activation of the serum response element. This activation manifests itself in the quantity of luciferase produced in the cells.
Compounds (9), (10), (11), (12), (14) and (19) were each added in concentrations of 1 μM to 50 μM to 6.5×10^4 HeLa-cells.
The IC50 value was determined from the plotting of the concentration of the compound against the intensity of the luciferase signal.

Data set [2] can be described thus: MTT assay (LC50) in HeLa-cells. To be noted: human, after 24 hours. Format: cell-based. On the procedure: The LC50 values were determined by an MTT assay according to a standard method.
The LC50 value describes the lethal concentration at which […] died within 24 hours after a one-time administration.

Another data set has as its target T1, sec7-domain of Gea2 (Saccharomyces cerevisiae, UniProt P39993).
T1 construct: 1 μM of the purified sec7-domain of cytohesin-1, cytohesin-2 and Gea2; made in house; host or cells: E. coli BL21DE3
Put plainly: GDP/GTP exchange on NΔ17-ARF1 catalysed by sec7-domain (tryptophan fluorescence). The data set is classed as biochemical. On the procedure: (§1) The IC50 value for the inhibition of the exchange activity of the sec7-domains of various guanine nucleotide exchange factors of the compounds (9), (10), (11), (12), (14) and (19) was determined.
(§2) For this purpose, the sec7-domains of cytohesin-1, cytohesin-2 and Gea2 as well as the NΔ 17-ARF 1, a mutant of the ARF protein, recombinantly expressed in E. coli BL21DE3, were purified by means of a standard method and used as catalysts for the exchange from GDP to GTP in GTPases of the family of the ADP ribosylation factors. The exchange from GDP to GTP induces a conformation change of the ribosylation factor, as a result of which the fluorescence of a tryptophan radical of the protein is increased.
(§3) In 50 mM of HEPES, pH 7.4, 120 mM of KCl, 1 mM of MgCl2, 45 μM of GTP S, the compounds (9), (10), (11), (12), (14) and (19), each in concentrations of 1 μM to 30 μM, were added to 1 μM NΔ 17-ARF1 and, in each case, 1 μM of the purified sec7-domain of cytohesin-1, cytohesin-2 and Gea2, and the fluorescence was measured in a Varioskan, Thermo LifeSciences Inc., at the following wavelengths: excitation: 275 nm, emission 340 nm.
(§4) The IC50 value can be determined by plotting the initial rise of the fluorescence signal against the added concentrations of the compounds. The IC50 value corresponds to the concentration of the compounds at which the activity of the protein is reduced to half. […] Brefeldin A, a specific inhibitor of the […] Gea2 served as the control.

In data set [3] the target is T2, sec7-domain of cytohesin-2 (Homo sapiens, UniProt Q99418).
T2 construct: 1 μM of the purified sec7-domain of cytohesin-1, cytohesin-2 and Gea2; made in house; host or cells: E. coli BL21DE3
T2 sequence (Q99418 72-201 limits assumed): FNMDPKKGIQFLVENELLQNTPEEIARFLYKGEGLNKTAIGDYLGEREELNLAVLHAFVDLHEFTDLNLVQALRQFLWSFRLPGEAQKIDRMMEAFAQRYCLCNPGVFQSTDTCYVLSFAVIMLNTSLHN
The data set is described as above. Format: biochemical. To be noted: 1 μM NΔ17-ARF1, 1 μM sec7-domain, compounds 1 μM to 30 μM. On the procedure:
as §1, §2, §3, §4

In data set [4] the test system is sec7-domain of cytohesin-1. Described as above. The data set is classed as biochemical. As to conditions: conclusion in words from Table 1. On the procedure: as §1, §2, §3, §4
In data set [5] the target is T3, sec7-domain of cytohesin-1 (Homo sapiens, UniProt Q15438).
T3 construct: central sec7-domain, corresponding to the amino acids 62-244 in cytohesin-1; made in house; host or cells: E. coli BL21DE3
T3 sequence (Q15438 62-244): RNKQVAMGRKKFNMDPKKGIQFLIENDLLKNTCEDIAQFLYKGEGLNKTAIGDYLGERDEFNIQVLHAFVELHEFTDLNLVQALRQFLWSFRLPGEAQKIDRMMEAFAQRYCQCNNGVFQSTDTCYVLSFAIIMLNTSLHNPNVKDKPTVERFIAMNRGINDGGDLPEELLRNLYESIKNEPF
The description is as above. To be noted: 1 μM NΔ17-ARF1, 1 μM sec7-domain, compounds 1 μM to 30 μM. Format: biochemical. On the procedure:
as §1, §2, §3, §4

T1 sequence (P39993 570-714): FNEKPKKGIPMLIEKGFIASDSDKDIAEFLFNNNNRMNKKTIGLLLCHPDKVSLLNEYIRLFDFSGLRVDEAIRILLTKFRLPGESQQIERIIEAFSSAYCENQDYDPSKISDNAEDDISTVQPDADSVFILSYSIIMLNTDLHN

In the case of `CCOCCCN(Cc1nc(C(=O)NCCCOCO)co1)C(=O)c1ccccc1Br` [Control 2, reference compound], the “effect on OKT3-mediated adhesion in primary human lymphocytes” value in data set [1] is “no effect”.
As for `CC(C)(C)c1ccc(S(=O)(=O)N(Cc2ccc(OS(C)(=O)=O)cc2)CC2CCCO2)cc1` (stereo not shown) [Control 1, reference compound], the IC50 in the data set with cytohesin-2 is above 50 µM. Besides, in data set [2], the CC50 at 24 h was above 150 µM.
Take `C[C@H]1CCC/C=C/[C@@H]2C[C@H](O)C[C@H]2[C@H](O)/C=C/C(=O)O1` [Brefeldin A, reference compound]: the IC50 was 23 ± 1 µM at sec7-domain of Gea2 (1 μM NΔ17-ARF1, 1 μM sec7-domain, compounds 1 μM to 30 μM, read-out: IC50 Gea2-sec7); above 150 µM in data set [3]; above 150 µM in data set [5]. Further, in data set [4], the “specificity of inhibition of sec7-domains (cytohesins vis-à-vis Gea2)” value was “specific inhibition of the sec7-domain of Gea2”.
On to `O=C(CN(CC1CCCO1)C(=O)Cc1cccs1)N(Cc1ccc(F)cc1)Cc1ccco1` (stereo not shown) [Compound 14], for which the results for the IC50 (in the data set on cytohesin-2; in data set [3]; in data set [5]) were 3 ± 1 µM, 19.3 ± 0.3 µM and 14.8 ± 0.3 µM, respectively. In addition, the “specificity of inhibition of sec7-domains (cytohesins vis-à-vis Gea2)” value in data set [4] is listed as “specific inhibition of the sec7-domains of the cytohesins”.
Consider `O=C(O)[C@H]1CSCN1C(=O)Cc1cccs1` [Compound 19], for which the IC50 was 3.5 ± 0.5 µM in the data set with cytohesin-2, 20 ± 0.6 µM in data set [3] and 15 ± 0.3 µM in data set [5]. In data set [2], this molecule showed a CC50 at 24 h above 150 µM. The “specificity of inhibition of sec7-domains (cytohesins vis-à-vis Gea2)” value in data set [4] is on record as “specific inhibition of the sec7-domains of the cytohesins”.
Regarding `CCOc1nc(-c2cccc(F)c2)n(-c2ccc(NC(=O)Cc3cccs3)cc2)n1` [Compound 10], the IC50 was 23 ± 5 µM in the data set with cytohesin-2, 67 ± 5 µM against sec7-domain of Gea2, 16.1 ± 0.9 µM in data set [3] and 12.6 ± 0.3 µM in data set [5]. In addition, the CC50 at 24 h in data set [2] was above 150 µM. In addition, in data set [4], the “specificity of inhibition of sec7-domains (cytohesins vis-à-vis Gea2)” value is reported as “specific inhibition of the sec7-domains of the cytohesins”.
`CCOc1nc(-c2ccccc2F)n(-c2ccc(NC(=O)CSc3ccccc3)cc2)n1` [Compound 11]: the IC50 in the data set on cytohesin-2 is 5 ± 1.5 µM; on sec7-domain of Gea2 it was 42 ± 4 µM; in data set [3] it was 12.4 ± 0.3 µM; in data set [5] it was 8.8 ± 0.3 µM. This molecule also returned a CC50 at 24 h in data set [2] of 142 ± 12 µM. Further, the “specificity of inhibition of sec7-domains (cytohesins vis-à-vis Gea2)” value in data set [4] is given as “specific inhibition of the sec7-domains of the cytohesins”.
As to `CN(c1cc(Cl)nc(SCc2ccc(C(=O)NCc3ccco3)cc2)n1)C1CCCCC1` [Compound 12], the concentration for half-maximal inhibition (IC50) in the data set with cytohesin-2 came out at 5 ± 1.5 µM; on sec7-domain of Gea2 it was 22 ± 2 µM; in data set [3], 19.5 ± 0.3 µM; in data set [5] it was 8 ± 0.3 µM. In addition, the CC50 at 24 h in data set [2] is above 150 µM. Moreover, the “specificity of inhibition of sec7-domains (cytohesins vis-à-vis Gea2)” value in data set [4] was “specific inhibition of the sec7-domains of the cytohesins”.

The record behind these values is US8163788B2, “Low-molecular inhibitors of cytohesin-family guanine nucleotide exchange factors” (Rheinische Friedrich-Wilhelms Universitat Bonn, priority 2004, dated 2012).
